pKi: −log10 of the molar value. Blank lines part the entries; values can stand above or below the compound they belong to.
Legend:
human B1 receptor = target: T1, human B1 receptor (Homo sapiens, UniProt P46663); experiment: Functional assay: DAK-induced contraction of fundus and ileum tissue from line 13 mice homozygous for the human B1 receptor gene
T1 construct: from tissue; host or cells: stomach fundus and ileum of line 13 mice homozygous for the human B1 receptor knock-in (targeting vector pB1R-KI2)
T1 sequence (P46663 1-353): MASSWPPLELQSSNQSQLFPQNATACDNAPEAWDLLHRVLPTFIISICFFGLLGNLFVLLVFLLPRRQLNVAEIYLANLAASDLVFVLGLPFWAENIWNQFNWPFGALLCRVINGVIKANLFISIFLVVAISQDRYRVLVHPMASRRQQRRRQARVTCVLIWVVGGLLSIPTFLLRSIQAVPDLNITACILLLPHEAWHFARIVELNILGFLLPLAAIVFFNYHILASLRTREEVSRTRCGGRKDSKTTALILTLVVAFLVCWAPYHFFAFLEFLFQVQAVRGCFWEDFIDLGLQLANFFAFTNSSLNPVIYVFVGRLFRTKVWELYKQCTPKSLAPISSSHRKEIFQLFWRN
Procedure: A functional assay was carried out twice on homozygous human b1 mouse fundus and ileum tissue to evaluate its B1 receptor activity in line 13, a mouse line homozygous for replacement of the mouse B1 gene with the human B1 receptor gene. A selective human B1 receptor compound (Compound #1) was tested for antagonistic activity against the receptor from these knock-in mice. Specifically, two homozygous mice were euthanized with CO2. Their stomach and ileum were removed and the fundic portion was divided in half by cutting an incision along the greater curvature. A medial longitudinal strip about 1 mm×0.6 cm was obtained by making cut along the midline incision. Two fundic strips were obtained from each stomach. The ileum was cut about 4 cm from the cecum. Each ileum is divided into two pieces and whole muscle was used. […] Each piece of ileum was tied one end to a glass rod with silk 4-0 and the other end to the Statham—Gould force transducer. One gram tension was applied to each tissue and contraction was recorded by a Hewlett-Packard 7758 recorder. All tissues receive 50 mM KCl at the end of 1 hr equilibrium for maximal response. The tissues are washed every 20 min for one hour. 30 nM of Compound #1 was added to two treated ileum or two treated fundus tissues and incubated for one hour. 0.1 μM M422 and 1 μM thiorphan are added to the bath 30 min before DAK dosing. A cumulative dose-response of DAK (10-^10M to 3×10^−5M) is carried out after pre-incubation.
DAK is diluted in Krebs solution. Full log dilution is made by adding 25 μl in […]. Compound #1 is diluted in DMSO.

[1] = target: T2, human B1 bradykinin receptor (human) (UniProt P46663); experiment: cell-based or functional assay
T2 sequence (looked up): T1 sequence (P46663 1-353)

B1 receptor = target: T3, B1 receptor (Mus musculus, UniProt Q61125); experiment: DAK response of the stomach fundus in wild type mice
T3 construct: from tissue; host or cells: stomach fundus of wild type mice
T3 sequence (Q61125 1-334): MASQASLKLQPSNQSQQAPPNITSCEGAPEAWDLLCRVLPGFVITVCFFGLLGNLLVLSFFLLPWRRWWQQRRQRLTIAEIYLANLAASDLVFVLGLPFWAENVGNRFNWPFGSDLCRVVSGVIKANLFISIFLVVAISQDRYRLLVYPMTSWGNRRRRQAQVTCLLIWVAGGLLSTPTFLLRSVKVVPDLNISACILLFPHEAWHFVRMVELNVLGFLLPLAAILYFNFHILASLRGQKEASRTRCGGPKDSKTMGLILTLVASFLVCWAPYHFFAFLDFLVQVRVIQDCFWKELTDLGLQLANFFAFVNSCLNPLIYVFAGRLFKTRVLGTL
Source text: This phenotype is detailed herein via a functional assay showing the effect of a selective antagonist of the human B1 receptor. […] Therefore, the transgenic mice of the present invention, including but not limited to the humanized mice exemplified herein, will be useful to evaluate the efficacy of human selective compounds in both in vitro and in vivo assays. The addition of exogenous agonist, or the natural release of endogenous agonist resulting from a stimulus, may activate the human receptor. The ability of human selective compounds to antagonize the activation of the receptor will permit a determination of the efficacy of the compound in these animal models. To this end, the humanized B1 transgenic models as described herein will be useful to screen any potential modulator of receptor activity (e.g., antagonists or agonists), including but not necessarily limited to peptides, proteins, or non-proteinaceous organic or inorganic molecules. The transgenic animals of the present invention provide for improved models to evaluate the efficacy of human selective compounds in both in non-human animal models, such as rodents humanized for expression of the B1 receptor. […] Even if successful, the properties of compounds selective for humans could not be assessed. […]

hb1 = target: T4, hb1 (Homo sapiens, UniProt P46663); experiment: binding data, hb1; details: human B1 receptor; kind of constant not given
T4 sequence (P46663 1-353): T1 sequence (P46663 1-353)

rat b1 = target: T5, rat b1 (Rattus norvegicus, UniProt P97583); experiment: binding data, rat b1; details: rat B1 receptor; kind of constant not given
T5 sequence (P97583 1-337): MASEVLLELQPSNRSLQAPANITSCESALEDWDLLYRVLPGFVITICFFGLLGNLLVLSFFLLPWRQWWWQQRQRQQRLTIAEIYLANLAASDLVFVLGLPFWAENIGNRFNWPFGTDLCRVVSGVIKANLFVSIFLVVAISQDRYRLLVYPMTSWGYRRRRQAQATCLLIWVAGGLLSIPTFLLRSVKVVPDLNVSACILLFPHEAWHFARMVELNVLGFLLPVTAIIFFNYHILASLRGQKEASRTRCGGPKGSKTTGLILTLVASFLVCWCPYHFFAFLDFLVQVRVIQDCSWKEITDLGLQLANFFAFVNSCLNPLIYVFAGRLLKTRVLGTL

Compound: des-Arg^10 kallidin [des-arg^10-kallidin, reference compound]
DAK contractile response (human B1 receptor; Line #13 homozygous mice, compared with wild type): full DAK contractile responses

EC50 of des-arg^10-kallidin, contraction of homozygous mouse ileum, Control (n = 2), Experiment #1 [1]: 4 nM
Compound: des-Arg^10 kallidin (from UniProt P01042 380-388) (peptide)

Kb (human B1 receptor; homozygous mouse fundus, Experiment #2 combined with Experiment #1 (n = 4)): 0.25 nM
Kb (human B1 receptor; homozygous mouse fundus, line 13, Experiment #1, 30 nM antagonist vs DAK): 0.27 nM
Kb (human B1 receptor; homozygous mouse fundus, line 13, Experiment #2, 30 nM antagonist vs DAK): 0.23 nM
Kb (human B1 receptor; homozygous mouse ileum, Experiment #2 combined with Experiment #1 (n = 4)): 0.09 nM
Kb (human B1 receptor; homozygous mouse ileum, line 13, Experiment #1, 30 nM antagonist vs DAK): 0.11 nM
Kb (human B1 receptor; homozygous mouse ileum, line 13, Experiment #2, 30 nM antagonist vs DAK): 0.21 nM
sensitivity of the DAK response to the human B1 selective antagonist (B1 receptor): insensitive
pKi (hb1): 10.40
pKi (rat b1): 6.23
Compound: O=C(C[C@@H]1C(=O)NCCN1S(=O)(=O)c1cccc2c1NCCC2)NCCc1ccc(C2=NCCN2)cc1 [Compound #1]

From US20090007283A1, “Transgenic Rodents Selectively Expressing Human B1 Bradykinin Receptor Protein” (priority 2003, published 2009)
